Source: patent US10940210B2, “BSH complex for boron neutron capture therapy” (National University Corporation Okayama University, priority 2016, dated 2021)

Tests used:
U87ΔEGFR brain tumor = test: Tumor-specific introduction of BSH in brain tumor model animal, anti-BSH immunohistostaining; assay type: in vivo, mouse; conditions: 200 μL tail vein, BSH 20 mM (with A6K 2 mM in complex); 12 hours after administration
Description: Animals used in the present experiment were bred, housed and used in accordance with the procedure approved (approval code: OKU-2016475) by the Animal Care and Use Committee, Okayama University. Tumor-bearing model mice (BALB/C nu/nu, female, 6 to 8 weeks of age, 25 g, Japan SLC, Inc., Shizuoka) were created by directly injecting 3 μL of a U87ΔEGFR cell suspension (1×10^5 cells/μL) into the brain. Two weeks later, 200 μL of the complex containing A6K and BSH (A6K 2 mM/BSH 20 mM) and 200 μL of BSH 20 mM as control experiments were respectively administered from the tail vein (given that a mouse body weight was 20 g, A6K-HCl was converted to 8 mg/kg and BSH was converted to 33.4 mg/kg.)
The complex used in the experiment (the compound described in Example 4 (1)) was prepared as follows. 70 μL of MQ water was added to 70 μL of A6K 10 mM to adjust to A6K 5 mM. […]
Twelve hours after administration, the mouse brain was embedded using an embedding medium for a frozen tissue section, tissue tek O.C.T compound. […] After washing, the section was immersed for 2 hours at room temperature in a solution of a donkey anti-mouse antibody (Life Technologies) labelled with Alexa-Fluor 488 (green fluorescence) (20 μg/mL) and a solution of a goat anti-rabbit antibody (Life Technologies) labelled with Alexa-Fluor 555 (red fluorescence) (2 μg/mL). […]

[1] = test system: glioma cell line U87ΔEGFR; test: Delivery of complex into a cancer cell, boron concentration in the cell by ICP-AES; assay type: cell-based, human; conditions: BSH 2 mM alone or with A6K (hydrochloride salt) 200 μM, 37° C. for 24 hours
Description: Mixing times were 10 minutes, 30 minutes, and 180 minutes. The obtained complex was diluted (pH 7.1 to 7.3) with PBS and added to a glioma cell line U87ΔEGFR in a petri dish. […] Each cell sample obtained by incubating, with the complex, at 37° C. for 3 hours, 12 hours, and 24 hours was subjected to ICP-AES thereby to measure a boron concentration in the cell. […] The incubation time of 12 hours was sufficient. […] The time for mixing with stirring of 10 minutes was sufficient. Increases in the BSH amounts in the cell were detected as an incubation time was extended.
A6R (TFA salt) and BSH were mixed with stirring by the same method as the method described in the above (1) to prepare a complex. The obtained complex was diluted (pH 7.1 to 7.3) with PBS and added to a glioma cell line U87ΔEGFR in a petri dish. Each cell sample obtained by incubating, with the complex, at 37° C. for 6 hours, 12 hours, and 24 hours was subjected to ICP-AES thereby to measure a boron concentration in the cell.
The complex containing A6K (hydrochloride salt) and BSH obtained in the above (1) (a molar ratio of A6K (hydrochloride salt):BSH was 1:10) was added to a glioma cell line U87ΔEGFR in a similar procedure to that described in Example 2 (2). The complex was added in an amount in such a way that final concentrations of A6K (hydrochloride salt) and BSH were as shown in FIG. 11. […]

mercaptoundecahydrododecaborate [BSH] was tested. Which “location of BSH relative to tumor tissue (HLA-A positive)” value (U87ΔEGFR brain tumor) did it give?
Its value is “not different between tumor tissues and normal brain tissues”.

What about the “presence of BSH in brain tissue (green fluorescence)” value (U87ΔEGFR brain tumor) of the same substance?
Its value is “weak”.

And the intracellular boron concentration [1]?
The intracellular boron concentration was 595.2±105.1 ng/10^6 cells.
